Test results taken from publication PMC7468568 (Nature chemical biology, 2020).
Converted amounts (≈) assume the structure as drawn.

Columns and labels:
[1] = system: c-Fos protein expression in the paraventricular nucleus (PVN); test: HPA axis activation: c-Fos labeling in the PVN; assay type: in vivo, mouse; conditions: for c-Fos protein expression in PVN: C57BL/6J mice
cannabinoid CB1 receptor = cannabinoid CB1 receptor (Homo sapiens, UniProt P21554); test: [3H]CP55940 radioligand displacement assay CB1; assay type: binding; conditions: at 10 μM
Neuro-2a cells [2] = test: Live cell count with trypan blue; assay type: cell-based, mouse; conditions: 10 μM, 2 h
[3] = Microsomal clearance, mouse; assay type: in vitro ADME; conditions: 1 μM
brain NAE levels = test: Lipid measurements in mouse brain; assay type: in vivo
FAAH = target: T1, FAAH (Mus musculus, UniProt O08914); test: Gel-based ABPP, mouse brain membrane proteome; assay type: biochemical; conditions: at 10 μM
T1 sequence (O08914 1-579): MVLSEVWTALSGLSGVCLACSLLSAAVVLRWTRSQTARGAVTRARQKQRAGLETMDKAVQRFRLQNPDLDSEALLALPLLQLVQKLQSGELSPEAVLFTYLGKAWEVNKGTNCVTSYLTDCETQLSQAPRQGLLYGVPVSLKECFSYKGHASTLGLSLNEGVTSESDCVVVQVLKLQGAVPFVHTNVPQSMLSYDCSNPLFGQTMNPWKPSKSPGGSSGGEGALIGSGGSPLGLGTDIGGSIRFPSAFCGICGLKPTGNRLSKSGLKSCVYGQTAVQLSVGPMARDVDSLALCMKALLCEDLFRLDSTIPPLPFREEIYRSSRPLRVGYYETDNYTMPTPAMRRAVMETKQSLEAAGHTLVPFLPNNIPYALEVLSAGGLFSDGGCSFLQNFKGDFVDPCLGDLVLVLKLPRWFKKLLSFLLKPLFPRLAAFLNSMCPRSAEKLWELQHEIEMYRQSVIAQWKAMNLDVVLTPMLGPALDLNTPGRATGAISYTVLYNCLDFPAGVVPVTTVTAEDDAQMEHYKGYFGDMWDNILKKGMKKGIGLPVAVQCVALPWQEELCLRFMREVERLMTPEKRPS

Neuro-2a cells [4] = test: Targeted lipidomics in Neuro-2a cells; assay type: cell-based, mouse; conditions: 10 μM, 2 h
[5] = Hepatocyte clearance, human; assay type: in vitro ADME; conditions: 1 μM
[6] = Plasma protein binding, mouse; assay type: in vitro ADME; conditions: equilibrium dialysis
logD-assay = assay type: physicochemical; conditions: octanol/water
mouse PGP-transporter = mouse PGP-transporter (Mus musculus, UniProt P21447); test: P-glycoprotein active efflux assay, mouse; assay type: in vitro ADME
cannabinoid CB2 receptor = cannabinoid CB2 receptor (Homo sapiens, UniProt P34972); test: [3H]CP55940 radioligand displacement assay CB2; assay type: binding; conditions: at 10 μM
human MAGL = target: T2, human MAGL (Homo sapiens, UniProt Q99685); test: Natural substrate-based fluorescence assay MAGL; assay type: biochemical
T2 sequence (Q99685 1-303): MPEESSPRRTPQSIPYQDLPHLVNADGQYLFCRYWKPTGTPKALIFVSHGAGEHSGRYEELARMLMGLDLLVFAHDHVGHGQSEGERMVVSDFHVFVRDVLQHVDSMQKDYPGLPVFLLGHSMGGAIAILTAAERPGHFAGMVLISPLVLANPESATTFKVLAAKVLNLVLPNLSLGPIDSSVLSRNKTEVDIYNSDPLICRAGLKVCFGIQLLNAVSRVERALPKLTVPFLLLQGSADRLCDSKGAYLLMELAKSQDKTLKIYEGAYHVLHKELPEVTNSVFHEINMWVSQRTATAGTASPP

[7] = Kinetic aqueous solubility; assay type: physicochemical; conditions: phosphate buffer pH 6.5
DAGLα/β, MAGL and ABHD6 = test: In vitro ABPP of brain of LEI-401-treated mice; assay type: in vivo, mouse; conditions: male C57BL/6J mice; 30 mg kg^−1 i.p.; 2 h; ABPP of brain membrane lysate
ABHD6 = target: T3, ABHD6 (Mus musculus, UniProt Q8R2Y0); test: Gel-based ABPP, mouse brain membrane proteome; assay type: biochemical
T3 sequence (Q8R2Y0 1-336): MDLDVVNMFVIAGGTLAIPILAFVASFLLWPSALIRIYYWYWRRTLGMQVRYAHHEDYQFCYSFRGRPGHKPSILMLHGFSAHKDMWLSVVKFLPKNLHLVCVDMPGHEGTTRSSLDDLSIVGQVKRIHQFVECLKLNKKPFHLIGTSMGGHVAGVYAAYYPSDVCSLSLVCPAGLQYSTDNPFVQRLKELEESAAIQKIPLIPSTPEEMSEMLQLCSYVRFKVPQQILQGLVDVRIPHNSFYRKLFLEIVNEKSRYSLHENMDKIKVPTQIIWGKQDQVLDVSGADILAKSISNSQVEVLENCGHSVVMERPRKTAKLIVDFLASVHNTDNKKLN

[8] = Microsomal clearance, human; assay type: in vitro ADME; conditions: 1 μM
DAGLα = test: Natural substrate-based fluorescence assay DAGLα; assay type: biochemical, human and mouse
[9] = target: protein targets of photoprobe 10 in hNAPE-PLD-FLAG-transfected HEK293T cells (Homo sapiens, UniProt Q6IQ20); test: Chemical proteomics-based photoaffinity labeling; assay type: cell-based; conditions: photoprobe 10 2 μM versus LEI-401 20 μM
[10] = Hepatocyte clearance, mouse; assay type: in vitro ADME; conditions: 1 μM
[11] = Plasma protein binding, human; assay type: in vitro ADME; conditions: equilibrium dialysis
mDAGLβ = target: T4, mDAGLβ (Mus musculus, UniProt Q91WC9); test: Surrogate substrate-based fluorescence assay DAGLβ; assay type: biochemical
T4 sequence (Q91WC9 1-669): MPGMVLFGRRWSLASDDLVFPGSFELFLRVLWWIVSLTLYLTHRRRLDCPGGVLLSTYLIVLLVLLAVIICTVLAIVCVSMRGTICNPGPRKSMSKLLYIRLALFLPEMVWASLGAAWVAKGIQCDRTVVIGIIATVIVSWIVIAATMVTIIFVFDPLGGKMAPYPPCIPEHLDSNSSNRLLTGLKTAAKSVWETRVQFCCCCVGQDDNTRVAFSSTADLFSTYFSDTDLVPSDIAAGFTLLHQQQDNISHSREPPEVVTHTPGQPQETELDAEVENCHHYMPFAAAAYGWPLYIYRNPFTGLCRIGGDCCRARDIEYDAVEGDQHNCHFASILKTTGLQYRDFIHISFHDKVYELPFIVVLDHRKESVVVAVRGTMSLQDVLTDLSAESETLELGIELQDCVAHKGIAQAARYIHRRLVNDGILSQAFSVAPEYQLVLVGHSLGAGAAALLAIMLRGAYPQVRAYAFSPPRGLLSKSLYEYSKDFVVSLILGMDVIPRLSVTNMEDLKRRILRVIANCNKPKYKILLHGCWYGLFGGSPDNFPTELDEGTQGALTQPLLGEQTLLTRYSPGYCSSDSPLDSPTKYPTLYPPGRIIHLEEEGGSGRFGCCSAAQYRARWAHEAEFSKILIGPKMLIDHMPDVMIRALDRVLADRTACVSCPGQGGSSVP

PLA2G4E = target: T5, PLA2G4E (Homo sapiens, UniProt Q3MJ16); test: Gel-based ABPP, hPLA2G4E overexpressing membrane lysate; assay type: biochemical; conditions: at 10 μM
T5 sequence (Q3MJ16 1-868): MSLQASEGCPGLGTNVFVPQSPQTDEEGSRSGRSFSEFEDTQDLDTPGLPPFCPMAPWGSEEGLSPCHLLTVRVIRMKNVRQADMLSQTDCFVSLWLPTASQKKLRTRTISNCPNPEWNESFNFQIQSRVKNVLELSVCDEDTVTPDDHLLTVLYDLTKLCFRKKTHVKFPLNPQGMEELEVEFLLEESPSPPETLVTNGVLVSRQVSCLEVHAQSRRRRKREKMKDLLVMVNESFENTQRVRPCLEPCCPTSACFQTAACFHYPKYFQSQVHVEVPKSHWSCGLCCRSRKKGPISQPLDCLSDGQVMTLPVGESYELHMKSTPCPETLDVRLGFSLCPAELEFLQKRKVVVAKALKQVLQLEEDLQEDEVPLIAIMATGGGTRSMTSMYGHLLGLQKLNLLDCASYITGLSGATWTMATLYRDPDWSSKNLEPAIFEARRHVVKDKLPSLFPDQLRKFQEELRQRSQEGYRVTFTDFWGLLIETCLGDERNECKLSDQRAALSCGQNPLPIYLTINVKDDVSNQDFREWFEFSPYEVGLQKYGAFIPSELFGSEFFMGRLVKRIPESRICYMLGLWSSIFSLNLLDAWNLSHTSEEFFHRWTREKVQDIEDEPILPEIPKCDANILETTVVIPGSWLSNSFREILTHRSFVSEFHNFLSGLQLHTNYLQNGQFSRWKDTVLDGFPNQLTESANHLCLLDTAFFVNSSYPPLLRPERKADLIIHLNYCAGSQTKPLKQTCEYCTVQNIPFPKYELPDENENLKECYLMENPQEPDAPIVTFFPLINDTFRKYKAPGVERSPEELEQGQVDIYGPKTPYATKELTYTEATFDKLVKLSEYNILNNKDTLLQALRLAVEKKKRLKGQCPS

NAPE-PLD = target: T6, NAPE-PLD (Mus musculus, UniProt Q8BH82); test: LC-MS-based endogenous NAPE-PLD activity assay; assay type: biochemical
T6 sequence (Q8BH82 1-396): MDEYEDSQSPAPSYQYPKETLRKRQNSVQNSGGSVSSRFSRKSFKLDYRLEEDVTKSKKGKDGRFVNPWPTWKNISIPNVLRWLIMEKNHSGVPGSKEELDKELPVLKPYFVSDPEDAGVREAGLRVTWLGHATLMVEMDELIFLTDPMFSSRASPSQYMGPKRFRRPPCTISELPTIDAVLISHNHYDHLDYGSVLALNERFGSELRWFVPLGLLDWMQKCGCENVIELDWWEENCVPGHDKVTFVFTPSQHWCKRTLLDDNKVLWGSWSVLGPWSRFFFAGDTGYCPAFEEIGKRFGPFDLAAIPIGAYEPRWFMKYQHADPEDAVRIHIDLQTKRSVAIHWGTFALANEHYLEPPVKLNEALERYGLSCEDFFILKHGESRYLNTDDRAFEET

human PGP-transporter = human PGP-transporter (Homo sapiens, UniProt P08183); test: P-glycoprotein active efflux assay, human; assay type: in vitro ADME
[12] = system: circulating corticosterone (CORT); test: HPA axis activation: circulating CORT measurements; conditions: cotreatment 1 mg kg^−1 i.p. with LEI-401 30 mg kg^−1 i.p.; P = 0.0027
[13] = WT littermates of NAPE-PLD KO animals, mixed 129SvJ-C57BL/6 background

Chain of mouse PGP-transporter (P21447 whole entry): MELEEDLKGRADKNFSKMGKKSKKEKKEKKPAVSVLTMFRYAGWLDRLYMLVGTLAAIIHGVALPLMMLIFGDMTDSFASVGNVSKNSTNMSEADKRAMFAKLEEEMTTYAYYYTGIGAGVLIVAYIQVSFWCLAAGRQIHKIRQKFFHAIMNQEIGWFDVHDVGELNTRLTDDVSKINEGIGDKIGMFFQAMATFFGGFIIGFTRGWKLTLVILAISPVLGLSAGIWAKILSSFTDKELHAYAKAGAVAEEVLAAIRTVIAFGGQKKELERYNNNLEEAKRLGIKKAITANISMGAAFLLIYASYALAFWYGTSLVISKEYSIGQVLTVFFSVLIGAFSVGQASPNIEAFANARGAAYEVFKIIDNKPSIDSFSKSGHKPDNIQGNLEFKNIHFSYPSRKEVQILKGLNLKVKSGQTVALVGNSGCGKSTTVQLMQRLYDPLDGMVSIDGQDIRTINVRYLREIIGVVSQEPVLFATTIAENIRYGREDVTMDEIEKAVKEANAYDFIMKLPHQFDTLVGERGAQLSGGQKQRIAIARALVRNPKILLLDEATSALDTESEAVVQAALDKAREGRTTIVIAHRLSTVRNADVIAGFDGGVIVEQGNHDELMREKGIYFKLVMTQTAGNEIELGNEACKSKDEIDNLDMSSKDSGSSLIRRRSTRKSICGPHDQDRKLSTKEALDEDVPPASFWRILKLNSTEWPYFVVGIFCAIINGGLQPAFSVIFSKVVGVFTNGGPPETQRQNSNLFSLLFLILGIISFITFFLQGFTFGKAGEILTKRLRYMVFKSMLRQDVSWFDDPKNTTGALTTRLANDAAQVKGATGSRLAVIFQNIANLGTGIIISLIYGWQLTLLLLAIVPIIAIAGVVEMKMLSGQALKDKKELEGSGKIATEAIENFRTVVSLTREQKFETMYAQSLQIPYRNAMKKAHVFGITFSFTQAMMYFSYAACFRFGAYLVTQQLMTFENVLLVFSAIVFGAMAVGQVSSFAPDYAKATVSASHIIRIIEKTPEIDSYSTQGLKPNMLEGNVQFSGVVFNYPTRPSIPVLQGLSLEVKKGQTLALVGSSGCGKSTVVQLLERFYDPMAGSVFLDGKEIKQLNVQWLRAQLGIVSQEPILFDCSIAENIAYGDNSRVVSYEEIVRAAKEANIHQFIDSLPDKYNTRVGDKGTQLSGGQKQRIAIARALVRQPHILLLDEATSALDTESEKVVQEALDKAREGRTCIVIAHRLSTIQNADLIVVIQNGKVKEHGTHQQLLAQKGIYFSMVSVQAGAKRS
Chain of cannabinoid CB1 receptor (P21554 whole entry): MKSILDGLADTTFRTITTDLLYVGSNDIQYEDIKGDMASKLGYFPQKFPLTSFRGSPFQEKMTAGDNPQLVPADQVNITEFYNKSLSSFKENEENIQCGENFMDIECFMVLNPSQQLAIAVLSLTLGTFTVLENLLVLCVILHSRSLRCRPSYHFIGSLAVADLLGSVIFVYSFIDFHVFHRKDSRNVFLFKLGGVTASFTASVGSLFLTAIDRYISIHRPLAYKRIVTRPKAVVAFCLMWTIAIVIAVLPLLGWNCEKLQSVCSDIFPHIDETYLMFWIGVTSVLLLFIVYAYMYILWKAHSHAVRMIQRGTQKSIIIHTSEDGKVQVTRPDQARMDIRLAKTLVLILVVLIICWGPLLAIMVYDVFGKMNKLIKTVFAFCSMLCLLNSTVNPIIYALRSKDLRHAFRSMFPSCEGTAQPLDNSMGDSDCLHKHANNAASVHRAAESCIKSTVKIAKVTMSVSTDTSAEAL
Chain of protein targets of photoprobe 10 in hNAPE-PLD-FLAG-transfected HEK293T cells (Q6IQ20 whole entry): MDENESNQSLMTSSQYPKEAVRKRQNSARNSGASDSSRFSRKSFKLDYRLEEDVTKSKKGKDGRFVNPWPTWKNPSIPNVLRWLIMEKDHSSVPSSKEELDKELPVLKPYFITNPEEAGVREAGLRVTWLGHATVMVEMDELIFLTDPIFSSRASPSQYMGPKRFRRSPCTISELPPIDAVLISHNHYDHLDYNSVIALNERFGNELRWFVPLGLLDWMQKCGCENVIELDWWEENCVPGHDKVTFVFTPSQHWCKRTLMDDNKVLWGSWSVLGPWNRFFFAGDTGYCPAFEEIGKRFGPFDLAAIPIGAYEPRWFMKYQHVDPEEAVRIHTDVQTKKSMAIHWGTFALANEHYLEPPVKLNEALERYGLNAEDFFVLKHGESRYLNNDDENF
Chain of human PGP-transporter (P08183 whole entry): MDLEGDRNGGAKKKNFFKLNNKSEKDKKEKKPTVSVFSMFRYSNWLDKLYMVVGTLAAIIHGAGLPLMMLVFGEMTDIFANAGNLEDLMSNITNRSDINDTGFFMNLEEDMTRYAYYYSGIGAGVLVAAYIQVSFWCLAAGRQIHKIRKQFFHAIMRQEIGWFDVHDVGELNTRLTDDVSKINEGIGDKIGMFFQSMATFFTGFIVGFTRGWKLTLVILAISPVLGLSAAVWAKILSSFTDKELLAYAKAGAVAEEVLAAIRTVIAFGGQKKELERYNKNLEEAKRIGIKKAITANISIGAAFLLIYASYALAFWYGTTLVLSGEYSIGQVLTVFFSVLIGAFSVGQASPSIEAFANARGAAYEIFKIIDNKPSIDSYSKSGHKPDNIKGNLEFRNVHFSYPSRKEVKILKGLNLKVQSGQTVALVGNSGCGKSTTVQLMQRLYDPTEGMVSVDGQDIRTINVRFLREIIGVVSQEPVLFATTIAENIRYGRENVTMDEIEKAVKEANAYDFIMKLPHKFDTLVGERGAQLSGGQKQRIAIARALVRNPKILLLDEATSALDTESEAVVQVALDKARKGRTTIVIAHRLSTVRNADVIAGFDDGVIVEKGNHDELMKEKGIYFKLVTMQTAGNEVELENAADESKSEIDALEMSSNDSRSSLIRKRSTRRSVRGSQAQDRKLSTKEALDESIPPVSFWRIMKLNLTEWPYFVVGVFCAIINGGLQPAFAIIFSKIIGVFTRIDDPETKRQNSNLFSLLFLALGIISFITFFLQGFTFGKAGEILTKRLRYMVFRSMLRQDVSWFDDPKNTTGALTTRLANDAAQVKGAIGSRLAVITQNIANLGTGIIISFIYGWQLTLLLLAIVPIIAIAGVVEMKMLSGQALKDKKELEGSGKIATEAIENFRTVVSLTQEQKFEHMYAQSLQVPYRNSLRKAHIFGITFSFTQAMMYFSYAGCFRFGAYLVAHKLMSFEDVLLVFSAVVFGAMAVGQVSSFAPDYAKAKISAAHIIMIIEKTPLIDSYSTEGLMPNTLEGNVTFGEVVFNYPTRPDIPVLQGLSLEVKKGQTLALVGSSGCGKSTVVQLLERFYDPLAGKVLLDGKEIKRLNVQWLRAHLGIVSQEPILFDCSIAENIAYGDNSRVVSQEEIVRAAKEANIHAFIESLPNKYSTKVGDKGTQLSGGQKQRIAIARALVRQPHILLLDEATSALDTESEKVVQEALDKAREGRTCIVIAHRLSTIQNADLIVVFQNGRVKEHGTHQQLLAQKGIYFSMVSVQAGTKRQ
Chain of cannabinoid CB2 receptor (P34972 whole entry): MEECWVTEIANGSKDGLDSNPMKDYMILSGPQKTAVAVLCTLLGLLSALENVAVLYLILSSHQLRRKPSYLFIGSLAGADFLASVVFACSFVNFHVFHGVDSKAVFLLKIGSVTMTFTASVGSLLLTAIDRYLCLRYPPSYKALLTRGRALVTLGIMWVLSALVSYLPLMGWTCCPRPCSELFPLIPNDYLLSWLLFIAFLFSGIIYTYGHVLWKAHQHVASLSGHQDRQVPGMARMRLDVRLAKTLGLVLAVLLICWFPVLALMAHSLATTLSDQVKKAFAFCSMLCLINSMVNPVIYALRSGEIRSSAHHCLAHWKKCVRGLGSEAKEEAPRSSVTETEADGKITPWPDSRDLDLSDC

SMILES: Cc1c(C(=O)NN2CCCCC2)nn(-c2ccc(Cl)cc2Cl)c1-c1ccc(I)cc1 [AM251]
- c-Fos protein expression in PVN ([1]; 3 mg kg^−1 i.p. single dose, 105 min before perfusion, P = 0.011): elevated c-Fos protein expression

SMILES: O=C(NCC1CC1)c1cc(N2CC[C@H](O)C2)nc(N2CCC[C@@H](c3ccccc3)C2)n1 [LEI-401]
- inhibitory activity, cannabinoid receptor type 1 (cannabinoid CB1 receptor): No inhibitory activities
- c-Fos protein expression in PVN ([1]; 30 mg kg^−1 i.p. single dose, 210 min before perfusion, P< 0.0001): elevated c-Fos protein expression
- cell viability (Neuro-2a cells [2]): did not show any sign of reduced cell viability
- clearance in mouse microsomes [3]: 42 μl min^−1 mg^−1 protein
- brain 2-AG levels (brain NAE levels; C57BL/6J mice, 30 mg kg^−1 i.p.): not significantly affected
- brain anandamide level, dose response (brain NAE levels; C57BL/6J mice, 30 mg kg^−1 i.p., 2 h): significantly reduced anandamide
- brain NAE levels in NAPE-PLD KO mice (brain NAE levels; NAPE-PLD KO mice, mixed 129SvJ-C57BL/6 background): did not reduce
- brain AA levels at high dose (brain NAE levels; WT and NAPE-PLD KO mice (both genotypes), 60 mg kg^−1): decreased
- brain NAPE and pNAPE species (brain NAE levels; WT and NAPE-PLD KO mice, compared to vehicle): No change
- brain PEA and OEA levels in WT littermates (brain NAE levels; [13]): significantly reduced
- brain anandamide levels in WT littermates (brain NAE levels; [13]): not decreased
- brain anandamide level, time course (brain NAE levels; male C57BL/6J mice, 30 mg kg^−1 i.p. single dose, 1, 2, 4, 8 h, significant at 2 h, vehicle level by 4 h): significant and time-dependent reduction
- inhibitory activity, FAAH (FAAH): No inhibitory activities
- anandamide level (Neuro-2a cells [4]; Neuro-2a NAPE-PLD KO cells): not in NAPE-PLD KO cells
- anandamide level (Neuro-2a cells [4]; Neuro-2a WT cells): twofold reduction
- other saturated, mono- and (ω−6)-polyunsaturated NAE levels (Neuro-2a cells [4]; Neuro-2a WT cells): twofold decrease
- (ω−3)-polyunsaturated EPEA and DHEA levels (Neuro-2a cells [4]; Neuro-2a cells): did not respond
- clearance in human hepatocytes [5]: 6.9 μl min^−1 per 10^6 cells
- mouse protein binding [6]: > 99.8%
- logD (logD-assay): 3.3
- efflux ratio, mouse PGP-transporter (mouse PGP-transporter): 1.8
- inhibitory activity, cannabinoid receptor type 2 (cannabinoid CB2 receptor): No inhibitory activities
- inhibition of MAGL (human MAGL): did not inhibit
- aqueous solubility [7]: 1.7 µg/mL (≈ 4.03 µM)
- activity of DAGLα/β, MAGL and ABHD6 in the brain (DAGLα/β, MAGL and ABHD6): not affected
- inhibition of ABHD6 (ABHD6): did not inhibit
- clearance in human microsomes [8]: 10 μl min^−1 mg^−1 protein
- inhibition of DAGLα (DAGLα): did not inhibit
- competition of NAPE-PLD labeling by probe 10 [9]: labeling could be prevented
- clearance in mouse hepatocytes [10]: 28.8 μl min^−1 per 10^6 cells
- human protein binding [11]: > 99.8%
- inhibition of DAGLβ (mDAGLβ): did not inhibit
- inhibitory activity, PLA2G4E (PLA2G4E): No inhibitory activities
- C17:0-NAE formation from C17:0-NAPE (NAPE-PLD; brain homogenates of NAPE-PLD KO mice): not from KO mice
- C17:0-NAE formation from C17:0-NAPE (NAPE-PLD; brain homogenates of WT mice): reduced C17:0-NAE formation
- efflux ratio, human PGP-transporter (human PGP-transporter): 1.7

SMILES: NC(=O)c1cccc(-c2cccc(OC(=O)NC3CCCCC3)c2)c1 [URB597]
- effect on LEI-401-induced c-Fos protein expression in PVN ([1]; cotreatment 1 mg kg^−1 i.p. with LEI-401 30 mg kg^−1 i.p., P=0.016): reversed by cotreatment
- plasma CORT levels in LEI-401-treated mice on cotreatment [12]: not when cotreated with a FAAH inhibitor
